Legend:
[1] = molecular target: T1, RecGNm (Neisseria meningitidis, UniProt Q9JY17); assay: TLC ATPase assay with [gamma-32P]ATP; format: biochemical; conditions: 100 nM DNA cofactor (branched DNA), 2 mM MgCl2, pH 7.5, 37 °C; labelled compound as tracer
T1 construct: gene recG; ORF in pET28b(+) (pGTB1, NdeI/XhoI), N-terminal 6xHis-tag, expressed in E. coli ER2566; Ni-NTA and Superdex 75
T1 sequence (Q9JY17 1-680): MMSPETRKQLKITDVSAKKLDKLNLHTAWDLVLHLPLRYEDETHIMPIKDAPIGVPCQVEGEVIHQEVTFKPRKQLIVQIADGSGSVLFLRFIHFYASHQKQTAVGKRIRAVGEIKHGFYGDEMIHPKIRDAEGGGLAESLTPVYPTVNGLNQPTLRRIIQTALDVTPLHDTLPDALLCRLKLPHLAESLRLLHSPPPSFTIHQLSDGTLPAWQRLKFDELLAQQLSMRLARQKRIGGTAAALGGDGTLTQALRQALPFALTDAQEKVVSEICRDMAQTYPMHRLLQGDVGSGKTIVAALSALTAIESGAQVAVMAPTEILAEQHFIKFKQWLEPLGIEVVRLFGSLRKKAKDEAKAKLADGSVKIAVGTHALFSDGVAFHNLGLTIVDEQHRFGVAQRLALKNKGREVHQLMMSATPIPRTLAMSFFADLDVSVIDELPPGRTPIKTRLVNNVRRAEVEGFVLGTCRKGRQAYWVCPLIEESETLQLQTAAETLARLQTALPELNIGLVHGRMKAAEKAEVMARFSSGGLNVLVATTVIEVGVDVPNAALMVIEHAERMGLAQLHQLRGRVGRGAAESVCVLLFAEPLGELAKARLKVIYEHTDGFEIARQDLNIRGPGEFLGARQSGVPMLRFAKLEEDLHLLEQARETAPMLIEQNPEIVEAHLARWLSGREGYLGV

[2] = molecular target: T2, Neisseria meningitidis DNA repair/recombination helicase RecG (Neisseria meningitidis strain MC58, UniProt Q9JY17 1-680); assay: MST; 21 nM RED-NHS labelled SSBNm, RecGNm titrated; 20 mM HEPES pH 7.5, 300 mM NaCl, 0.05% Tween 20, 0.1% Pluronic F-127, 0.1% PEG 8000, 2 mM DTT; 22°C, 40% MST power; conditions: both partners purified
T2 construct: RecG helicase of Neisseria meningitidis strain MC58; the ORF was amplified from genomic DNA and cloned into pET28b(+) between XhoI and NdeI (plasmid pGTB1); also called RecGNm; Nm RecG; source: E. coli ER2566, purified (Ni-NTA, gel filtration on Superdex 75)
T2 sequence (looked up): T1 sequence (Q9JY17 1-680)

## Nc1ncnc2c1ncn2[C@@H]1O[C@H](COP(=O)(O)OP(=O)(O)OP(=O)(O)O)[C@@H](O)[C@H]1O [ATP]
[1]
  % ATP hydrolysis: RecGNm displayed comparable capacity of ATP hydrolysis in the presence of different types of branched

B1: Neisseria meningitidis single-stranded DNA-binding protein SSB (natural protein, Neisseria meningitidis strain MC58, UniProt P66848 1-174, looked up)
chain: MSLNKVILIGRLGRDPEVRYMPNGEAVCNFSVATSETWNDRNGQRVERTEWHNITMYRKLAEIAGQYLKKGGLVYLEGRIQSRKYQGKDGIERTAYDIVANEMKMLGGRNENSGGAPYEEGYGQSQEAYQRPAQQSRQPASDAPSHPQEAPAAPRRQPVPAAAPVEDIDDDIPF
modifications: Monolith NT Protein Labeling Kit RED-NHS dye, degree of labelling 0.65 (in the MST only)
notes: It was unlabelled in the gel filtration and RED-NHS labelled in the MST; also called SSBNm; source: plasmid pEH1 (pQE-30 harboring ssb from Nm MC58)
[2]
  Kd: 558 ± 139 nM
